Data as given in patent US10941121B2 (AZIENDA OSPEDALIERA UNIVERSITARIA SENESE, priority 2015, dated 2021).

Legend:
DDX1 = molecular target: T1, DDX1 (Homo sapiens, UniProt Q92499); test: Selectivity of 20a: DDX1; type: biochemical; settings: >200 = less than 20% of inhibition at 200 μM, the highest concentration tested
T1 sequence (Q92499 1-740): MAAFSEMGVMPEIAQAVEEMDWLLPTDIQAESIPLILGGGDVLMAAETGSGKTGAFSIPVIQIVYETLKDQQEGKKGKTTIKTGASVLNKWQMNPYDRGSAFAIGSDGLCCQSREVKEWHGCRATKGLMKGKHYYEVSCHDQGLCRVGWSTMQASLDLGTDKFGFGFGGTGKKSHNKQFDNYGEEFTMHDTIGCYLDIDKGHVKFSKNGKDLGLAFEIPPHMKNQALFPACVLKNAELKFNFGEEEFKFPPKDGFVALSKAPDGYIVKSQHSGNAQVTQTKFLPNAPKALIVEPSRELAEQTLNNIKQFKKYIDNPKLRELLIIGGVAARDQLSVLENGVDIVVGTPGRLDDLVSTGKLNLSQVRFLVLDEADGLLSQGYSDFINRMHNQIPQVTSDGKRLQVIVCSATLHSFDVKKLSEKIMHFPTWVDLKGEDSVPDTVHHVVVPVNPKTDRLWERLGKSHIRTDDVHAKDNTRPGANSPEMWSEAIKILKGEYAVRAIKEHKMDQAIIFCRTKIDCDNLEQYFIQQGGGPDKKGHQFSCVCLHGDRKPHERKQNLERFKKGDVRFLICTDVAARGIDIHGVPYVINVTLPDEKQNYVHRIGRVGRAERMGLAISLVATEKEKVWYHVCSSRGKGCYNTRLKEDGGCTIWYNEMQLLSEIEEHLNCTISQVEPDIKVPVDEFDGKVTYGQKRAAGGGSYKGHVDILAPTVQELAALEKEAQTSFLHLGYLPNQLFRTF

NS3 (DENV) = NS3 (DENV) (Orthoflavivirus denguei (Dengue virus), UniProt P29990); test: Selectivity of 20a: NS3 (DENV); type: biochemical
NS3 (DENV), sequence (P29990 1476-2093): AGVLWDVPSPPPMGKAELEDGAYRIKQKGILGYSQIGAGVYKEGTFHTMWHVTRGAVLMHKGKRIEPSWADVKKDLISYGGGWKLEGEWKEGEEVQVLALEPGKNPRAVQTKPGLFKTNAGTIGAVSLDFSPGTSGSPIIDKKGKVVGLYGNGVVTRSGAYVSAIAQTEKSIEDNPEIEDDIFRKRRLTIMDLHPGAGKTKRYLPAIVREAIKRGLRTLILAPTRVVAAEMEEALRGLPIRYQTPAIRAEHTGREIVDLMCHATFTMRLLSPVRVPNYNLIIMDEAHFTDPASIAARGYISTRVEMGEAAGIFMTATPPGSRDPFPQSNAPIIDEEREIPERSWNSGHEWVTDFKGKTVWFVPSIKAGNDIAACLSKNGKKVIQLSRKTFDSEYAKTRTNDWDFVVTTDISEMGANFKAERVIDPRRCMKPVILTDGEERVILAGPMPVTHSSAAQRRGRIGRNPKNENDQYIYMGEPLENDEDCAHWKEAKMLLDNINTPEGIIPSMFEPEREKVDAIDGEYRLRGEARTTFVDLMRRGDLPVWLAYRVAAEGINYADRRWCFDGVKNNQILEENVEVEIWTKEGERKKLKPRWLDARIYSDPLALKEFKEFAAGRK

NS3 (HCV) = NS3 (HCV) (Hepacivirus hominis (Hepatitis C virus), UniProt P26663); test: Selectivity of 20a: NS3 (HCV); type: biochemical
NS3 (HCV), sequence (P26663 1027-1657): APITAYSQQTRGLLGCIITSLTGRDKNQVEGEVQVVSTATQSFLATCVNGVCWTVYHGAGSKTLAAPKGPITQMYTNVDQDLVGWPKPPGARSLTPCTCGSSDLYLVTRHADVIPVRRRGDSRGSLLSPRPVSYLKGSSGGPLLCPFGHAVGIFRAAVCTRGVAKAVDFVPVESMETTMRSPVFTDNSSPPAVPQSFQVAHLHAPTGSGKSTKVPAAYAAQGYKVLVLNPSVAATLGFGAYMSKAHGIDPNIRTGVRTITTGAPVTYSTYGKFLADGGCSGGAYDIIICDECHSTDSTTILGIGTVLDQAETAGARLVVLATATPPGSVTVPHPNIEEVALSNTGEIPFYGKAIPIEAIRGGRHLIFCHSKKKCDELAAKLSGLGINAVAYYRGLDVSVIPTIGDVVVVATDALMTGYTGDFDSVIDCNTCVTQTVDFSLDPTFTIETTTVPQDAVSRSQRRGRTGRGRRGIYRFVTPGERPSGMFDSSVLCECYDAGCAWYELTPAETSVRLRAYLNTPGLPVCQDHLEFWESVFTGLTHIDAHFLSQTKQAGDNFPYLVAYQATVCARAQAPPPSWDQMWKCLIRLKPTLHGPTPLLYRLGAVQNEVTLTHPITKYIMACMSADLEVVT

[1] = Cytotoxicity, MTT method in LUNET cells; type: cell-based; settings: human; MMT method in LUNET cells; read-out: CC50 (μM) non-infected cells
Procedure: Toxicity (CC50) was analysed in the Lunet/HuH7 cells by the addition of 10 μL of MTT (3-(4,5-dimethylthiazol-2-yl)-2,5-diphenyltetrazolium bromide) per well. After 4 h of incubation at 37° C. in a humidified atmosphere with 5% CO2, the amount of formazan produced was quantified spectrophotometrically at 550/620 nm (C. Pannecouque et al, Nature protocol 2008; 3 (3): 427-434). […] These assays were done in duplicate.

[2] = Cytotoxicity, MTT method in HuH7.5 cells; type: cell-based; settings: human, non-infected, read-out: HCV CC50
Procedure: After 4 h of incubation at 37° C. in a humidified atmosphere with 5% CO2, the amount of formazan produced was quantified spectrophotometrically at 550/620 nm (C. Pannecouque et al, Nature protocol 2008; 3 (3): 427-434). […] These assays were done in duplicate.

[3] = Cytotoxicity in PBMC, CellTiter 96 MTS viability assay; type: cell-based; settings: human, human primary PBMCs
[4] = test system: HIV-1 wild-type reference strain NL4-3; test: HIV-1 phenotypic assay, MT-2 cells then TZM-bl cells, luciferase; type: cell-based; settings: Human immunodeficiency virus 1, NL43
[5] = Parallel Artificial Membrane Permeability Assay (PAMPA); type: in vitro ADME
Procedure: Parallel Artificial Membrane Permeability Assay (PAMPA). Donor solution (0.5 mM) was prepared by diluting 1 mM dimethylsulfoxide (DMSO) compound stock solution using phosphate buffer (pH 7.4, 0.025 M). Filters were coated with 5 μL of a 1% (w/v) dodecane solution of phosphatidylcholine prepared from CHCl3 solution 10% w/v, for intestinal permeability. Donor solution (150 μL) was added to each well of the filter plate. To each well of the acceptor plate were added […] (50% DMSO in phosphate buffer). All compounds were tested in three different plates on different days. The sandwich was incubated for 5 h at room temperature under gentle shaking. After the incubation time, the plates were separated, and samples were taken from both receiver and donor sides and analyzed using LC with UV detection at 280 nm.
LC analysis were performed with a Varian Prostar HPLC system (Varian Analytical Instruments, USA) equipped with a binary pump with a manual injection valve and model Prostar 325 UV-VIS Detector.
Permeability (Papp) for PAMPA was calculated according to the following equation, obtained from Wohnsland and Faller and Sugano et al. equation with some modification in order to obtain permeability values in cm s^−1,
where VA is the volume in the acceptor well, VD is the volume in the donor well (cm^3), A is the “effective area” of the membrane (cm^2), t is the incubation time (s) and r the ratio between drug concentration in the acceptor and equilibrium concentration of the drug in the total volume (VD+VA). Drug concentration is estimated by using the peak area integration.
Membrane retentions (%) were calculated according to the following equation: […]
where r is the ratio between drug concentration in the acceptor and equilibrium concentration, D, A, and Eq represented drug concentration in the donor, acceptor and equilibrium solution, respectively.

DDX3 Helicase = DDX3 Helicase (Homo sapiens, UniProt O00571); settings: read-out: ID50 (μM) against DDX3 Helicase; n.a. = compound not active
DDX3 Helicase, sequence (O00571 whole entry): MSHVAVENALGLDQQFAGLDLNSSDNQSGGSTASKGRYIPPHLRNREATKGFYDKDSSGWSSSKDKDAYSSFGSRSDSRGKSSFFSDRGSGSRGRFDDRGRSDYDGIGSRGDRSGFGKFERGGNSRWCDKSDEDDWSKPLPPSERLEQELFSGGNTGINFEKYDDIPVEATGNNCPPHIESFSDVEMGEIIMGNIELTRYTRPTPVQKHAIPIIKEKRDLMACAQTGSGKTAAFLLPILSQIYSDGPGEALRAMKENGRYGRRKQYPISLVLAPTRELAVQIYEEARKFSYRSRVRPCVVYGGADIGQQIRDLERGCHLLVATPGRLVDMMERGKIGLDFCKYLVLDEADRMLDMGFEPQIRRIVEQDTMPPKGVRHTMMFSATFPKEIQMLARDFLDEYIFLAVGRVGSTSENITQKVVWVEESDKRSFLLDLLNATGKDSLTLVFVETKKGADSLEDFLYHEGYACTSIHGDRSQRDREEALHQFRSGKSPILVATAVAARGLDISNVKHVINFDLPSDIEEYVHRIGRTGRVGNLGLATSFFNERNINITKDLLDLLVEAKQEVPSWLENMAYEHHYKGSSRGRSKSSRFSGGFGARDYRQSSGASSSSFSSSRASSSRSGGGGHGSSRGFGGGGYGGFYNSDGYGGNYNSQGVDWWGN

[6] = test system: human liver microsome (HLM); test: Microsomal Stability Assay; settings: human liver microsomes, 37 °C, 60 min, compound 50 μM; percentage of not metabolized compound
[7] = Cytotoxicity in Huh7 cells, nuclei counts; settings: human
[8] = Cytotoxicity in the JEV cell culture system; settings: hamster
HIV (PBMC) = test: HIV infectious cell culture system in PBMC, HIV-1 RNA in supernatant; settings: Human immunodeficiency virus 1, PBMC, 72 h, read-out: EC50 HIV (PBMC) 72 h
JEV strain (NJ2008) = test: JEV infectious cell culture system, plaque formation assay in BHK-21 cells; settings: Japanese encephalitis virus, BHK-21, read-out: JEV EC50

CCCCc1cn(-c2ccc(NC(=O)Nc3ccccc3C)cc2)nn1 [Compound 20a, 1-(4-(4-butyl-1H-1,2,3-triazol-1-yl)phenyl)-3-o-tolylurea] gave an IC50 (DDX1) of over 200 µM, an IC50 (NS3 (DENV)) of over 200 µM and an IC50 (NS3 (HCV)) of 16.8 µM. It also gave a CC50 [1] of 49.8 µM, a CC50 [2] of 10.1 µM and a CC50 at 24 h ([3]; 24 h) of over 1000 µM. It also gave a CC50 at 48 h ([3]; 48 h) of over 1000 µM, a CC50 at 72 h ([3]; 72 h) of over 1000 µM and an EC50 ([4]; first cycle in MT-2 cells, additional round in TZM-bl cells) of 1.1 µM. The IC50 ([4]; strain 114, NL4-3 wild type, read-out: IC50 [95% CI] (μM), HIV-1 strain 114) was 1.11 µM, the Papp at 5 h, 0.5 mM ([5]; PAMPA, phosphatidylcholine in dodecane, pH 7.4, 5 h, room temperature, read-out: PAMPA Papp *10^−6 (cm/s) GI) was 2.86 ×10⁻⁶ cm/s and the “PAMPA membrane retention (RM %)” value ([5]; value in brackets in the PAMPA cell) was 19.1%. For the same compound, the IC50 (DDX3 Helicase) was 0.3 µM, the “Metabolic stability (Sability %)” value [6] was 99% and the CC50 at 48 h ([7]; DENV CC50, Huh7 cells, DENV experiment) was over 787 µM. The CC50 at 48 h ([7]; WNV CC50, Huh7 cells, WNV experiment) was over 500 µM, the CC50 [8] was over 50 µM and the EC50 (HIV (PBMC)) was 30 µM. It also gave an EC50 (JEV strain (NJ2008)) of 20 µM.
